Measurements published in ChEMBL document CHEMBL5352473, “Design, synthesis, biological evaluation and crystal structure determination of dual modulators of carbonic anhydrases and estrogen receptors” (Eur J Med Chem, 2023).
Calls of active or inactive are those of the source. The calls are words filed in the database; no cut-off is given here.

What was measured:
Carbonic anhydrase 1 = Carbonic anhydrase 1 (Homo sapiens, UniProt P00915); assay: Binding affinity to human CA1 assessed as inhibition constant incubated for 6 hrs by phenol red dye based stopped flow CO2 hydration assay
Chain of Carbonic anhydrase 1 (P00915 whole entry): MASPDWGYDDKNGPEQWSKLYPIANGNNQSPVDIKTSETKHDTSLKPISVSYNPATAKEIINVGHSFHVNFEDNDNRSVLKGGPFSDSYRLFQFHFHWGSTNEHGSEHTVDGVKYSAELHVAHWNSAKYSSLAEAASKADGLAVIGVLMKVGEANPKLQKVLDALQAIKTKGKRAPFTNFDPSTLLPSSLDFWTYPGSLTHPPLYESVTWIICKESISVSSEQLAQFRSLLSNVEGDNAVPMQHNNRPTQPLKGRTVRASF

Carbonic anhydrase 2 = Carbonic anhydrase 2 (Homo sapiens, UniProt P00918); assay: Binding affinity to human CA2 assessed as inhibition constant incubated for 6 hrs by phenol red dye based stopped flow CO2 hydration assay
Carbonic anhydrase 9 = Carbonic anhydrase 9 (Homo sapiens, UniProt Q16790)
Description: Binding affinity to human CA9 assessed as inhibition constant incubated for 6 hrs by phenol red dye based stopped flow CO2 hydration assay

Carbonic anhydrase 12 = Carbonic anhydrase 12 (Homo sapiens, UniProt O43570); assay: Binding affinity to human CA12 assessed as inhibition constant incubated for 6 hrs by phenol red dye based stopped flow CO2 hydration assay
Chain of Carbonic anhydrase 12 (O43570 whole entry): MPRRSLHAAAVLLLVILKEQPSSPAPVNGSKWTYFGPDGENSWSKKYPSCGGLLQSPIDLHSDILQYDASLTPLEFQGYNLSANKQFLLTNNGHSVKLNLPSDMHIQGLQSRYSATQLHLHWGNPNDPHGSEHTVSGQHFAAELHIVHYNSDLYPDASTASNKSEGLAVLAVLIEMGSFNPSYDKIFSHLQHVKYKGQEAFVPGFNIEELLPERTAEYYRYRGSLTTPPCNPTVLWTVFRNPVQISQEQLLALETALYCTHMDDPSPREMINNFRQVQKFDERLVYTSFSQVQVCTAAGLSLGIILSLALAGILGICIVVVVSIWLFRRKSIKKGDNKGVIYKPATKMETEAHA

[1] = biological target: Estrogen receptor beta (Homo sapiens) (UniProt Q92731); assay: Partial agonist activity at wild type human ERbeta in HEK-293T cells transfected with 3xERE-driven luciferase reporter plasmid by luciferase reporter gene assay; format: cell-based
Chain of Estrogen receptor beta (Homo sapiens) (Q92731 whole entry): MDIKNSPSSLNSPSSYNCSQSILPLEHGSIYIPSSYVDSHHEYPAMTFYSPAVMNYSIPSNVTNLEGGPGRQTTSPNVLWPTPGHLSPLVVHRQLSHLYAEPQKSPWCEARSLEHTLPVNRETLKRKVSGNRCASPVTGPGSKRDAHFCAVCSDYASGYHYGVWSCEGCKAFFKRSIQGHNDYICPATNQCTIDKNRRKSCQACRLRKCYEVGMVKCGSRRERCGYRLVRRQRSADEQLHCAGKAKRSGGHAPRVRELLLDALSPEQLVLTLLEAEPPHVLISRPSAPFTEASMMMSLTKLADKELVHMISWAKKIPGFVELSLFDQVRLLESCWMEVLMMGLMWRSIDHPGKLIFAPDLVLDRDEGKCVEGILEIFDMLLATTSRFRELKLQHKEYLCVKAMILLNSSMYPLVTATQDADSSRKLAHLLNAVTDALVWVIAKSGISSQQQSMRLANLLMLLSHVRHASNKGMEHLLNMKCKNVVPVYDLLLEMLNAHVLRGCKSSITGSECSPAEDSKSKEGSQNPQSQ

Ki (Carbonic anhydrase 1): 73.6 nM | Ki (Carbonic anhydrase 2): 2.2 nM | Ki (Carbonic anhydrase 9): 2090 nM | Ki (Carbonic anhydrase 12): 256 nM | Activity [1]: inactive
SMILES: NS(=O)(=O)c1ccc2c(c1)C1C=CCC1C(c1ccccc1Cl)N2 (racemic)
